This is an account of results in ChEMBL document CHEMBL1153340, “Inhibitors of HIV-1 attachment. Part 2: An initial survey of indole substitution patterns” (Bioorg Med Chem Lett, 2009).

SMILES strings stand for the structures. Values after ≈ are worked out from the molar mass of the structure shown. Where only a bound is given, the exact number is not on record here.

A short description of data set [1]: Tmax in dog at 1 mg/kg, po dosed as micronized suspension. Conditions: in vivo. Also on record: dose 1 mg/kg, route oral. It counts as ADME, organism-based, Canis lupus familiaris.
Data set [2] can be described thus: Solubility in poly ethylene glycol 400. The format is physicochemical. Conditions: polyethylene glycol 400.
The nature of data set [3]: Cmax in dog at 1 mg/kg, po dosed as nanosuspension. The format is ADME, organism-based, Canis lupus familiaris. Also on record: dose 1 mg/kg, route oral. Conditions: in vivo.
The nature of data set [4]: Oral bioavailability in rat at 25 mg/kg dosed as solution in PEG400/EtOH. It counts as ADME, organism-based. Conditions: in vivo.
Data set [5] in a line: Permeability across human Caco-2 cells. The format is ADME, cell-based. Conditions: read-out: permeability.
Data set [6] can be described thus: Cmax in dog at 1 mg/kg, po dosed as solution in PEG400/EtOH. It counts as ADME, organism-based, Canis lupus familiaris. Also on record: dose 1 mg/kg, route oral. As to conditions: in vivo.
Data set [7] can be described thus: Tmax in rat at 25 mg/kg, po dosed as solution in PEG400/EtOH. It counts as ADME, organism-based. Also noted: dose 25 mg/kg, route oral. Conditions: in vivo.
Data set [8] can be described thus: Cmax in dog at 1 mg/kg, po dosed as micronized suspension. As to conditions: in vivo. The format is ADME, organism-based, Canis lupus familiaris. Also noted: dose 1 mg/kg, route oral.
Data set [9] is described as follows: Cytotoxicity against human HeLa67 cells expressing CD4/CCR5 after 3 days by XTT assay. The format is cell-based. In general terms: Formazan colour is commonly taken as a measure of viable cells.
Data set [10] in a line: Tmax in rat at 5 mg/kg, po dosed as solution in PEG400/EtOH. The format is ADME, organism-based. Also noted: dose 5 mg/kg, route oral. Conditions: in vivo.
A short description of data set [11]: Terminal half life in rat at 5 mg/kg, iv dosed as solution in PEG400/EtOH. Conditions: in vivo, read-out: beta t1/2. It counts as ADME, organism-based. Also on record: dose 5 mg/kg, route intravenous.
Data set [12] is described as follows: Mean residence time in rat at 5 mg/kg, iv dosed as solution in PEG400/EtOH. The format is ADME, organism-based. Also on record: dose 5 mg/kg, route intravenous. As to conditions: in vivo.
The nature of data set [13]: Clearance in rat at 5 mg/kg, iv dosed as solution in PEG400/EtOH. Also on record: dose 5 mg/kg, route intravenous. As to conditions: in vivo. The format is ADME, organism-based.
Data set [14] can be described thus: Oral bioavailability in dog at 1 mg/kg dosed as micronized suspension. It counts as ADME, organism-based, Canis lupus familiaris. As to conditions: in vivo.
The nature of data set [15]: Solubility in water. The format is physicochemical. As to conditions: buffer.
A short description of data set [16]: Oral bioavailability in rat at 5 mg/kg dosed as solution in PEG400/EtOH. The format is ADME, organism-based. Conditions: in vivo.
Data set [17] in a line: Volume of distribution at steady state in rat at 5 mg/kg, iv dosed as solution in PEG400/EtOH. The format is ADME, organism-based. Also on record: dose 5 mg/kg, route intravenous. As to conditions: in vivo, read-out: Vdss.
Data set [18] can be described thus: Tmax in dog at 1 mg/kg, po dosed as solution in PEG400/EtOH. It counts as ADME, organism-based, Canis lupus familiaris. Also on record: dose 1 mg/kg, route oral. As to conditions: in vivo.
The nature of data set [19]: Terminal half life in rat at 25 mg/kg, po dosed as solution in PEG400/EtOH. It counts as ADME, organism-based. Also noted: dose 25 mg/kg, route oral. Conditions: in vivo, read-out: beta t1/2.
The nature of data set [20]: Tmax in dog at 1 mg/kg, po dosed as nanosuspension. It counts as ADME, organism-based, Canis lupus familiaris. Also on record: dose 1 mg/kg, route oral. As to conditions: in vivo.
Data set [21] in a line: Tmax in rat at 5 mg/kg, po dosed as nanosuspension. It counts as ADME, organism-based. Also noted: dose 5 mg/kg, route oral. As to conditions: in vivo.
Data set [22] is described as follows: Cmax in rat at 5 mg/kg, po dosed as nanosuspension. The format is ADME, organism-based. Also noted: dose 5 mg/kg, route oral. Conditions: in vivo.
Data set [23] can be described thus: Oral bioavailability in rat at 5 mg/kg dosed as nanosuspension. It counts as ADME, organism-based. Conditions: in vivo.
Data set [24] is described as follows: Oral bioavailability in dog at 1 mg/kg dosed as nanosuspension. As to conditions: in vivo. It counts as ADME, organism-based, Canis lupus familiaris.
Data set [25] is described as follows: Oral bioavailability in dog at 1 mg/kg dosed as solution in PEG400/EtOH. Conditions: in vivo. It counts as ADME, organism-based, Canis lupus familiaris.
Data set [26] can be described thus: Cmax in rat at 25 mg/kg, po dosed as solution in PEG400/EtOH. Conditions: in vivo. Also on record: dose 25 mg/kg, route oral. The format is ADME, organism-based.
Data set [27] concerns Human immunodeficiency virus 1. The data set can be described thus: Antiviral activity against pseudotype HIV1 JRFL infected in human HeLa67 cells expressing CD4/CCR5 after 3 days by luciferase reporter gene assay. As to conditions: Human immunodeficiency virus 1, JRFL, HeLa67, 72 h. The format is functional, organism-based.
Data set [28] can be described thus: Volume of distribution at steady state in rat at 1 mg/kg, iv dosed as solution in PEG400/EtOH. It counts as ADME, organism-based. Also noted: dose 1 mg/kg, route intravenous. Conditions: in vivo, read-out: Vdss.
A short description of data set [29]: Terminal half life in rat at 5 mg/kg, po dosed as solution in PEG400/EtOH. It counts as ADME, organism-based. Also on record: dose 5 mg/kg, route oral. As to conditions: in vivo, read-out: beta t1/2.
Data set [30] can be described thus: Cmax in rat at 5 mg/kg, po dosed as solution in PEG400/EtOH. Also on record: dose 5 mg/kg, route oral. It counts as ADME, organism-based. Conditions: in vivo.
The nature of data set [31]: Clearance in rat at 1 mg/kg, iv dosed as solution in PEG400/EtOH. It counts as ADME, organism-based. Also noted: dose 1 mg/kg, route intravenous. Conditions: in vivo.
Data set [32] in a line: Terminal half life in rat at 1 mg/kg, iv dosed as solution in PEG400/EtOH. The format is ADME, organism-based. Also on record: dose 1 mg/kg, route intravenous. As to conditions: in vivo, read-out: beta t1/2.
Data set [33] is described as follows: Mean residence time in rat at 1 mg/kg, iv dosed as solution in PEG400/EtOH. Also noted: dose 1 mg/kg, route intravenous. It counts as ADME, organism-based. Conditions: in vivo.
Data set [34] concerns Human immunodeficiency virus 1. The data set can be described thus: Antiviral activity against pseudotype HIV1 LAI infected in human HeLa67 cells expressing CD4/CCR5 after 3 days by luciferase reporter gene assay. It counts as functional, organism-based. As to conditions: Human immunodeficiency virus 1, LAI, HeLa67, 72 h. (In a reporter assay the amount or activity of a reporter protein is the signal.)

A word on the Tmax: it is the time from dosing to the highest level. What is called solubility is the dissolved amount per volume that the medium holds. Low readings indicate little dissolved substance, high ones much dissolved substance. As usually defined, the Cmax is the maximum level reached in the sampled fluid or tissue. The term CC50 denotes the concentration at which the toxic effect on the cells reaches its halfway point. A high value points to lower toxicity to the cells. The MRT is the average time that molecules of a dose stay in the body. Usually clearance stands for a measure of how efficiently the substance is removed, as volume per time. The low end stands for a low capacity for elimination, the high end for a high capacity for elimination. As a reminder, the EC50 is the concentration at which the effect is half-maximal. A higher EC50 goes with a less potent agent. For the compound `O=C(C(=O)N1CCN(C(=O)c2ccccc2)CC1)c1c[nH]c2cccc(F)c12`, the time of peak concentration (Tmax) in data set [1] was 4 h; in [7] it was 0.883 h; in data set [10] it was 0.617 h; in data set [18] it was 1.2 h; in data set [20], 1.8 h; in data set [21] it was 2.83 h. The solubility was determined as 4600 µg/mL (≈ 12.1 mM) in [2] and 0.005 µg/mL (≈ 1.32e-05 mM) in [15]. The Cmax in [3] was 160 ng/mL; in [6] it was 560 ng/mL; in data set [8], 60 ng/mL; in data set [22], 18 ng/mL; in data set [26] it was 649 ng/mL. In addition, the bioavailability in [4] is 17%; in data set [14], 12%; in data set [16], 9%; in [23], 4%; in [24] it was 36%; in [25] it was 89%. Moreover, in data set [5], the Papp was 10 ×10⁻⁶ cm/s. Also, the CC50 at 72 h in data set [9] was more than 300000 nM. Further, the figures for the half-life in data set [11] and in data set [19] were 0.467 h and 1.2 h, respectively. In [12], this compound had an MRT of 0.35 h. This compound returned a clearance in data set [13] of 48 mL/min/kg. The Vd in data set [17] was determined as 0.99 L/kg. The compound further gave an EC50 in [27] of 2.59 nM.

With `O=C(C(=O)N1CCN(C(=O)c2ccccc2)CC1)c1c[nH]c2c(F)ccc(F)c12`, the Vd in data set [28] stood at 0.85 L/kg. In addition, the Papp in data set [5] stood at 21.9 ×10⁻⁶ cm/s. In addition, the half-life stood at 9.18 h in [29] and 0.283 h in data set [32]. Also, in [9], the cytotoxic concentration (CC50) at 72 h was more than 300000 nM. Moreover, in data set [10], the time to peak (Tmax) is 0.333 h. The compound further gave a maximum concentration (Cmax) in [30] of 55 ng/mL. Also, in [31], the clearance was 46.9 mL/min/kg. The bioavailability in [16] was found to be 11%. The MRT in data set [33] is 0.317 h. The EC50 in [27] amounted to 0.35 nM.

For the compound `COc1ccc(OC)c2c(C(=O)C(=O)N3CCN(C(=O)c4ccccc4)CC3)c[nH]c12`, the Vd in [28] was determined as 0.52 L/kg. In addition, the half-life in data set [29] is 1.85 h; in data set [32] it was 2.3 h. The same compound yielded a CC50 at 72 h in data set [9] of 279000 nM. In data set [10], the Tmax is 3 h. In addition, in [30], the Cmax worked out at 3200 ng/mL. Also, in data set [31], the clearance was found to be 5.2 mL/min/kg. In addition, the bioavailability in [16] was found to be 107%. In addition, the MRT in data set [33] was 1.7 h. For the same compound, in data set [27], a half-maximal effect (EC50) was put at 0.23 nM.

On to `O=C(C(=O)N1CCN(C(=O)c2ccccc2)CC1)c1c[nH]c2cc(Cl)c(Cl)cc12`, for which the CC50 at 72 h in data set [9] was 52300 nM. In addition, the EC50 in data set [34] came out at 500 nM.
